The values below come from US5559129A, “Indole derivatives” (priority 1995, dated 1996).

For data set [1], the system named is plasma protein extravasation response within the dura mater. Put plainly: Inhibition of plasma protein extravasation within the dura mater following unilateral electrical trigeminal ganglion stimulation. The note with it: for minimal effective dose: Cavia porcellus, iv, i.v. in guinea pigs, read-out: M.E.D. (minimally effective dose) for inhibition of plasma protein extravasation. It counts as in vivo, guinea pig. As for the experimental part:
The active compounds of the present invention are also evaluated via the inhibition of plasma protein extravasation response within the dura mater of guinea pigs following unilateral electrical trigeminal ganglion stimulation. The extent to which they mimic sumatriptan, in terms of both potency and efficacy, is determined in this assay. The procedure is performed on male Hartley guinea pigs (200-250 g, Charles River Laboratories, Wilmington, Mass., U.S.A.) as described in Markowitz et al., J. Neurosci., 7 (12), 4129-4136 (1987) and also in Lee, et al., Brain Reseach, 626, 303-305 (1993). The procedure briefly consists of placing pentobarbitone-anesthetized animals in a stereotaxic frame. ^125 I-BSA (bovine serum albumin) (50 μCi/kg^-1) is first injected into the femoral vein, followed 5 minutes later by drug or vehicle. Bipolar electrodes are then lowered into the trigeminal ganglia, and the right ganglion is stimulated for 5 minutes (1.2 mA, 5 Hz, 5 msec). The animal is then perfused with saline through the left cardiac ventricle and sacrificed, and the dura mater is dissected, weighed, and counted for radioactivity. Cpm/mg wet weight values are determined for the right vs left dura mater, and a ratio for the stimulated vs unstimulated sides is generated for each animal. Unpaired student's t-test is used to statistically compare these ratio values in respective groups treated with vehicle or drug.

For data set [2], the system named is carotid vascular resistance. Particulars: anaesthetized dog; cited from earlier work.
For data set [3], the system named is dog isolated saphenous vein strip. The note with it: antagonist of the vein strip contraction; cited from earlier work.
Data set [4] in a line: Solid-state and solubility properties of the α-form of the hydrobromide salt. Type of data set: physicochemical. Particulars: crystalline α-form of the hydrobromide salt.

As to `CNS(=O)(=O)Cc1ccc2[nH]cc(C[C@H]3CCCN3C)c2c1` [Example 5A, (R)-5-(Methylaminosulfonylmethyl)-3-(N-methylpyrrolidin-2-ylmethyl)-1H-indole], the minimal effective dose in data set [1] came to 1e-06 µmol/kg.
The same measure, in the same setting: next, `CNS(=O)(=O)Cc1ccc2[nH]cc(C[C@H]3CCCN3)c2c1` [Example 6A, (R)-5-(Methylaminosulfonylmethyl)-3-(pyrrolidin-2-ylmethyl)-1H-indole]: 1e-07 µmol/kg.
In the case of `CNS(=O)(=O)Cc1ccc2[nH]cc(CCN(C)C)c2c1` [Sumatriptan], in data set [2], the “increase in carotid vascular resistance” value is listed as “selective increase in carotid vascular resistance”.
Turning to `CN1C[C@H](CNC(=O)OCc2ccccc2)C[C@@H]2c3cccc4c3c(cn4C)C[C@H]21` [metergoline, reference compound], the “block of the effect of the drugs by a known serotonin antagonist” value in data set [1] (antagonist of the inhibition of plasma protein extravasation) is “partially blocked”.
Take `CSc1ccc2c(c1)C(N1CCN(C)CC1)Cc1ccccc1S2` (centres unmarked) [methiothepin]: the “block of the contractile effect by a known serotonin antagonist” value in data set [3] was “blocked”.
With `Br.CN1CCC[C@@H]1Cc1c[nH]c2ccc(CCS(=O)(=O)c3ccccc3)cc12` [α-form, (R)-5-(2-phenylsulphonylethyl)-3-(N-methylpyrrolidin-2-ylmethyl)-1H-indole hydrobromide], in data set [4], the hygroscopicity result is recorded as “non-hygroscopic”; the solid-state stability result is “possesses solid-state stability”; the “solubility and dissolution behavior” value was “acceptable solubility and dissolution behavior”.
